Active and inactive are the calls of the source. The rule behind the calls is not given here.
Legend:
Rattus norvegicus [1] = test: Antithrombotic activity in Wistar rat model assessed as thrombus weight at 1 nmol/kg, po by polyethylene tube based method; assay type: functional
Platelet [2] = test: Anti-platelet aggregation activity in Sprague-Dawley rat platelet rich plasma assessed as inhibition of ADP-induced aggregation preincubated with compound followed by ADP addition measured after 5 mins by two channel chronology aggregometry; assay type: functional, cell-based
[3] = Anti-platelet aggregation activity in Sprague-Dawley rat platelet rich plasma assessed as inhibition of TH-induced aggregation preincubated with compound followed by TH addition measured after 5 mins by two channel chronology aggregometry; assay type: functional, cell-based
Platelet [4] = test: Anti-platelet aggregation activity in Sprague-Dawley rat platelet rich plasma assessed as inhibition of AA-induced aggregation preincubated with compound followed by AA addition measured after 5 mins by two channel chronology aggregometry; assay type: functional, cell-based
Platelet [5] = test: Anti-platelet aggregation activity in Sprague-Dawley rat platelet rich plasma assessed as inhibition of PAF-induced aggregation preincubated with compound followed by PAF addition measured after 5 mins by two channel chronology aggregometry; assay type: functional, cell-based
[6] = Cytotoxicity activity against human NCM460 cells assessed as cell growth inhibition incubated for 48 hrs by CCK-8 assay; assay type: toxicity, cell-based
[7] = Toxicity in rat thrombosis model assessed as bleeding in thoracic cavity at 0.001 to 1 nmol/kg, po; conditions: in vivo, dose 0.001-1 nmol/kg
[8] = Cytotoxicity activity against human L02 cells assessed as cell growth inhibition incubated for 48 hrs by CCK-8 assay; assay type: toxicity, cell-based
[9] = Toxicity in rat thrombosis model assessed as change in tail bleeding time at 1 nmol/kg, po by tail bleeding time assay; assay type: organism-based; conditions: in vivo
[10] = Toxicity in rat thrombosis model assessed as change in tail bleeding time at 0.01 nmol/kg, po by tail bleeding time assay; assay type: organism-based; conditions: in vivo
[11] = Toxicity in rat thrombosis model assessed as change in tail bleeding time at 0.001 nmol/kg, po by tail bleeding time assay; assay type: organism-based; conditions: in vivo
[12] = Cytotoxicity activity against human NHDF cells assessed as cell growth inhibition incubated for 48 hrs by CCK-8 assay; assay type: toxicity, cell-based
[13] = Toxicity in rat thrombosis model assessed as bleeding in brain at 0.001 to 1 nmol/kg, po; assay type: tissue-based; conditions: in vivo, dose 0.001-1 nmol/kg
[14] = Toxicity in rat thrombosis model assessed as bleeding in inferior cavity at 0.001 to 1 nmol/kg, po; conditions: in vivo, dose 0.001-1 nmol/kg
Rattus norvegicus [15] = test: Anti-arterial thrombosis activity in po dosed male Wister rat thrombogenesis model assessed as thrombus weight by polyethylene tube based method; assay type: functional, organism-based; conditions: dose 0.001-1 nmol/kg
Rattus norvegicus [16] = test: Antithrombotic activity in Wistar rat model assessed as thrombus weight at 10 nmol/kg, po by polyethylene tube based method; assay type: functional

IC50 [3] [nM]	Compound	Activity (Rattus norvegicus [1]) [mg]	inhibition (Platelet [2])	inhibition (Platelet [4])	inhibition (Platelet [5])	also measured
230	COC(=O)c1cc([C@H]2N[C@H](C(=O)N[C@@H](CCCNC(=N)N)C(=O)O)Cc3c2[nH]c2ccccc32)ccc1O	21.66	inactive	inactive	inactive	
70	COC(=O)c1cc([C@H]2N[C@H](C(=O)N[C@@H](Cc3ccc(O)cc3)C(=O)O)Cc3c2[nH]c2ccccc32)ccc1O	19.19	inactive	inactive	inactive	
70	COC(=O)c1cc([C@H]2N[C@H](C(=O)N[C@@H](CC(N)=O)C(=O)O)Cc3c2[nH]c2ccccc32)ccc1O	19.19	inactive	inactive	inactive	IC50 at 48 h [6]: > 125000 nM; Activity [7]: Non-Toxic; IC50 at 48 h [8]: > 125000 nM; Activity [9]: Non-Toxic; Activity [10]: Non-Toxic; Activity [11]: Non-Toxic; IC50 at 48 h [12]: > 125000 nM; Activity [13]: Non-Toxic; Activity [14]: Non-Toxic; Activity (Rattus norvegicus [15]): Dose-Dependent Effect
1750	COC(=O)c1cc([C@H]2N[C@H](C(=O)N[C@H](C(=O)O)[C@@H](C)O)Cc3c2[nH]c2ccccc32)ccc1O	23.69	inactive	inactive	inactive	
230	COC(=O)c1cc([C@H]2N[C@H](C(=O)N[C@@H](CCC(N)=O)C(=O)O)Cc3c2[nH]c2ccccc32)ccc1O	21.66	inactive	inactive	inactive	
1750	COC(=O)c1cc([C@H]2N[C@H](C(=O)NCC(=O)O)Cc3c2[nH]c2ccccc32)ccc1O	23.69	inactive	inactive	inactive	
1750	COC(=O)c1cc([C@H]2N[C@H](C(=O)N[C@@H](Cc3ccccc3)C(=O)O)Cc3c2[nH]c2ccccc32)ccc1O	23.69	inactive	inactive	inactive	
70	COC(=O)c1cc([C@H]2N[C@H](C(=O)N[C@@H](CCCCN)C(=O)O)Cc3c2[nH]c2ccccc32)ccc1O	19.19	inactive	inactive	inactive	
230	COC(=O)c1cc([C@H]2N[C@H](C(=O)N[C@@H](Cc3c[nH]c4ccccc34)C(=O)O)Cc3c2[nH]c2ccccc32)ccc1O	21.66	inactive	inactive	inactive	
1750	COC(=O)c1cc([C@H]2N[C@H](C(=O)N[C@@H](CC(C)C)C(=O)O)Cc3c2[nH]c2ccccc32)ccc1O	23.69	inactive	inactive	inactive	
70	COC(=O)c1cc([C@H]2N[C@H](C(=O)N[C@@H](CO)C(=O)O)Cc3c2[nH]c2ccccc32)ccc1O	19.19	inactive	inactive	inactive	
230	COC(=O)c1cc([C@H]2N[C@H](C(=O)N[C@@H](C)C(=O)O)Cc3c2[nH]c2ccccc32)ccc1O	21.66	inactive	inactive	inactive	
1750	COC(=O)c1cc([C@H]2N[C@H](C(=O)N[C@@H](CC(=O)O)C(=O)O)Cc3c2[nH]c2ccccc32)ccc1O	23.69	inactive	inactive	inactive	
1750	COC(=O)c1cc([C@H]2N[C@H](C(=O)N[C@@H](CCC(=O)O)C(=O)O)Cc3c2[nH]c2ccccc32)ccc1O	23.69	inactive	inactive	inactive	
230	CC[C@H](C)[C@H](NC(=O)[C@@H]1Cc2c([nH]c3ccccc23)[C@@H](c2ccc(O)c(C(=O)OC)c2)N1)C(=O)O	21.66	inactive	inactive	inactive	
230	COC(=O)c1cc([C@H]2N[C@H](C(=O)N[C@H](C(=O)O)C(C)C)Cc3c2[nH]c2ccccc32)ccc1O	23.69	inactive	inactive	inactive	
	COC(=O)c1cc([C@H]2N[C@H](C(=O)O)Cc3c2[nH]c2ccccc32)ccc1O					Activity (Rattus norvegicus [16]): 23.17 mg

Reference: ChEMBL document CHEMBL5352399, “(1R,3S)-THCCA-Asn: To show the discovery of selective inhibitor of thrombin by successfully combining virtual screening and biological assay” (Eur J Med Chem, 2022)
